Data reported in US20250018049A1, “COMPOUNDS FOR DEGRADING CYCLIN-DEPENDENT KINASE 2 VIA UBIQUITIN PROTEOSOME PATHWAY” (NIKANG THERAPEUTICS, INC., priority 2020, published 2025).

Columns and labels:
Type in all cases: cell-based
CDK2 [1] = biological target: T1, CDK2 (Homo sapiens, UniProt P24941); assay: NanoBRET CDK2 engagement assay; set-up: expressed in transfected cells; settings: OVCAR3 cells with stable CDK2-Luciferase vector, 24 hours treatment
Procedure: OVCAR3 cells with stable transfection of CDK2-Luciferase vector were seeded into 96-well plate at a density of 20,000 cells per well, 50 μL Opti-MEM medium supplemented with 1% FBS. Following morning, cells were treated with compounds of the disclosure, with starting concentration at 3 μM and ½ log dilution down to 0.3 nM for 24 hours at 37° C. DMSO treatment serves as control. Compound engagement was then measured using NanoBRE™ Kinase Kit from Promega (Part Number: CS1810C122, NanoBRET™ TE Kinase Kit #10, 1K) following manufacturer's instruction. For 24 hours treatment, tracer was added only for the last 2 hours. Briefly, 2.5 μL of complete 20× NanoBRET Tracer was added to the cells in suspension. Immediately prior to BRET measurements, prepare 3× Complete NanoBRET® Nano-Glo® Substrate in Opti-MEM without serum and phenol red. Without any delay, 25 μL per well of 3× Complete NanoBRET™ Nano-Glo® Substrate for a 96-well plate was added and mixed well. Signal was then read on a CLARIOstar® plate reader (measure donor emission (e.g., 450 nm) and acceptor emission (e.g., 610 nm or 630 nm) using a NanoBRET™-compatible luminometer. Target engagement was calculated with DMSO treatment as 100% signal, and IC50 was calculated by GraphPad Prism 9.

CDK2 [2] = biological target: T1, CDK2; assay: CDK2 HTRF assay (cellular endogenous CDK2 level); set-up: High-Throughput Measurement of Cellular Endogenous CDK2; endogenous in cells; host or cells: OVCAR3; settings: OVCAR-3; OVCAR3 cells, 24 hours, 0.3 to 10,000 nM; read-out: max degradation of CDK2
Procedure: Effects of compounds on cellular CDK2 level can be monitored by a high-throughput HTRF assay or traditional Western Blot assay.
To determine half maximal degradation concentration (DC50) values of compounds, cellular CDK2 level was measured in 96-well format using HTRF total CDK2 cellular kit (Cat #64CDK2TPEG) from Cisbio.
On Day 1, OVCAR3 cells were seeded into 96-well tissue-culture treated plates at 20,000 cells/well in 200 μL and incubated overnight at 37° C. in CO2 atmosphere. On Day 2 cells were treated with compounds at concentration ranging from 0.3 to 10,000 nM using HP D300 digital dispenser. 24 hours after compound treatment, cell culture media was removed by flicking the plate and tapping the plate against clean paper towel. Immediately 30 μL 1× lysis buffer was supplemented from the kit and the plate was incubated at room temperature on shaker for 30 min. After homogenization by pipetting up and down, 8 μL cell lysate from 96-well cell culture plate was transferred to 384-well small volume white detection plate. 2 μL premixed detection solution was added and the plate was covered with sealer. To prepare the detection solution, d2 conjugated-CDK2 antibody and Eu-cryptate conjugated CDK2 antibody were diluted into detection buffer following manufacturer's instruction. Detection plates were incubated overnight at room temperature and read on ClarioStar (BMG Labtech) in TR-FRET mode (665 nM and 620 nM). The TR-FRET ratio (665 nM/620 nM) was plotted against the compound concentration and normalized to DMSO controls. Half maximal degradation concentration (DC50) values were calculated with a four-parameter logistic fit using GraphPad Prism (version 8; La Jolla, CA). FIG. 1 provides a dose-response curve of Compound 1 in Compound Table I in cellular CDK2 HTRF assay. IC50 in FIG. 1 is the same as DC50. Compounds 1, 13, 16, 22, 23, 28, 34, 35, 36, 37, 38, 39, 42, 48, 50, 51, 53, 54, 55, 56, 57, 58, 59, 60, 61, 62, 63, 65, 66, 68, 69, 70 were tested and max degradation of CDK2 observed was from about 35% to about 90%.

CDK2 [3] = biological target: T1, CDK2; assay: Phospho-Rb HTRF measurement in OVCAR3 cells (inhibition of CDK2); set-up: High-Throughput Measurement of Cellular Endogenous CDK2; endogenous in cells; host or cells: OVCAR3; settings: pRB(S807/811) assay, 24 h compound treatment
Procedure: Phosphorylation of RB protein at S780 and S807/811 were measured using HTRF phospho-RB cellular kits (Cat #64RBS780PEG and 64RBS807PEG) from Cisbio.
On Day 1, OVCAR3 or KYSE520 cells were seeded into 96-well tissue-culture treated plates at 20,000 cells/well in 200 μL and incubated overnight at 37° C. in CO2 atmosphere. On Day 2, the cells were treated with test compounds at concentrations from 0.3 to 10,000 nM using HP D300 digital dispenser. Twenty-four hours after compound treatment, cell culture media was removed by flicking the plate and tapping the plate against clean paper towel. Immediately 30 μL 1× lysis buffer was supplemented from the kit and the plate was incubated at room temperature on shaker for 30 min. After homogenization by pipetting up and down, 8 μL cell lysate from 96-well cell culture plate was transferred to 384-well small volume white detection plate. 2 μL premixed detection solution was added and the plate was covered with sealer. To prepare the detection solution, d2 conjugated-phospho-RB antibody and Eu-cryptate conjugated phosphor-RB antibody were diluted into detection buffer following manufacturer's instruction. Detection plates were incubated for 4 h at room temperature and read on ClarioStar (BMG Labtech) in TR-FRET mode (665 nM and 620 nM). The TR-FRET ratio (665 nM/620 nM) was plotted against the compound concentration and normalized to DMSO controls. Half maximal inhibition concentration (IC50) values are calculated with a four-parameter logistic fit using GraphPad Prism (version 8; La Jolla, CA).

| Compound | IC50 (CDK2 [1]) [nM] | Dmax (CDK2 [2]) [%] | IC50 (CDK2 [3]) [nM] |
| --- | --- | --- | --- |
| O=C1CCC(N2C(=O)c3cc(F)c(N4CCN(Cc5cccc(S(=O)(=O)N6CC[C@H](Nc7ncc8ccc(=O)n(C9CCCC9)c8n7)[C@@H](F)C6)c5)CC4)cc3C2=O)C(=O)N1 (stereo partly drawn) [Compound 65, 5-(4-(3-(((3S,4S)-4-((8-cyclopentyl-7-oxo-7,8-dihydropyrido[2,3-d]pyrimidin-2-yl)amino)-3-fluoropiperidin-1-yl)sulfonyl)benzyl)piperazin-1-yl)-2-(2,6-dioxopiperidin-3-yl)-6-fluoro-isoindoline-1,3-dione] | 1750 | 35 to 90 | 6440 |
| O=C1CCC(N2Cc3cc(N4CC(N5CCN(c6cccc(S(=O)(=O)N7CCC(Nc8ncc9ccc(=O)n(C%10CCCC%10)c9n8)CC7)c6)CC5)C4)ccc3C2=O)C(=O)N1 (centres unmarked) [Compound 69, 3-(5-(3-(4-(3-((4-((8-cyclopentyl-7-oxo-7,8-dihydropyrido[2,3-d]pyrimidin-2-yl)amino)-piperidin-1-yl)sulfonyl)phenyl)piperazin-1-yl)azetidin-1-yl)-1-oxoisoindolin-2-yl)piperidine-2,6-dione] | 149 | 35 to 90 | 31.8 |
| O=C1CCC(N2Cc3cc(CN4CC(Oc5cccc(S(=O)(=O)N6CCC(Nc7ncc8ccc(=O)n(C9CCCC9)c8n7)CC6)c5)C4)ccc3C2=O)C(=O)N1 (centres unmarked) [Compound 67, 3-(5-((3-(3-((4-((8-cyclopentyl-7-oxo-7,8-dihydro-pyrido[2,3-d]pyrimidin-2-yl)amino)piperidin-1-yl)sulfonyl)phenoxy)azetidin-1-yl)methyl)-1-oxoisoindolin-2-yl)piperidine-2,6-dione] | 150 |  | 27 |
| O=C1CCC(N2C(=O)c3ccc(CN4CC(Oc5cccc(S(=O)(=O)N6CCC(Nc7ncc8ccc(=O)n(C9CCCC9)c8n7)CC6)c5)C4)cc3C2=O)C(=O)N1 (centres unmarked) [Compound 17, 5-((3-(3-((4-((8-cyclopentyl-7-oxo-7,8-dihydro-pyrido[2,3-d]pyrimidin-2-yl)amino)piperidin-1-yl)sulfonyl)phenoxy)azetidin-1-yl)methyl)-2-(2,6-dioxopiperidin-3-yl)isoindoline-1,3-dione] | 450 |  | 245 |
| Cn1c(=O)n(C2CCC(=O)NC2=O)c2cccc(C3CCN(C4CC5(C4)CN(S(=O)(=O)N4CCC(Nc6ncc7ccc(=O)n(C8CCCC8)c7n6)CC4)C5)CC3)c21 (centres unmarked) [Compound 32, 3-(4-(1-(2-((4-((8-cyclopentyl-7-oxo-7,8-dihydro-pyrido[2,3-d]pyrimidin-2-yl)amino)piperidin-1-yl)sulfonyl)-2-azaspiro[3.3]heptan-6-yl)piperidin-4-yl)-3-methyl-2-oxo-2,3-dihydro-1H-benzo[d]imidazol-1-yl)piperidine-2,6-dione] | 59 |  | 317 |
| O=C1CCC(N2C(=O)c3ccc(N4CC(Oc5cccc(S(=O)(=O)N6CCC(Nc7ncc8ccc(=O)n(C9CCCC9)c8n7)CC6)c5)C4)cc3C2=O)C(=O)N1 (centres unmarked) [Compound 12, 5-(3-(3-((4-((8-cyclopentyl-7-oxo-7,8-dihydro-pyrido[2,3-d]pyrimidin-2-yl)amino)piperidin-1-yl)sulfonyl)phenoxy)azetidin-1-yl)-2-(2,6-dioxopiperidin-3-yl)isoindoline-1,3-dione] | 4780 |  | 697 |
| Cn1c(=O)n(C2CCC(=O)NC2=O)c2cccc(C3CCN(C4CCN(S(=O)(=O)N5CCC(Nc6ncc7ccc(=O)n(C8CCCC8)c7n6)CC5)CC4)CC3)c21 (centres unmarked) [Compound 31, 3-(4-(1′-((4-((8-cyclopentyl-7-oxo-7,8-dihydro-pyrido[2,3-d]pyrimidin-2-yl)amino)piperidin-1-yl)sulfonyl)-[1,4′-bipiperidin]-4-yl)-3-methyl-2-oxo-2,3-dihydro-1H-benzo[d]imidazol-1-yl)piperidine-2,6-dione] | 64 |  | 294 |

Other lines, results leading:

| IC50 (CDK2 [1]) [nM] | Dmax (CDK2 [2]) [%] | IC50 (CDK2 [3]) [nM] | Compound |
| --- | --- | --- | --- |
| 403 | 35 to 90 | 440 | O=C1CCC(N2C(=O)c3cccc(NCCOCCOCCOCCOCCNS(=O)(=O)N4CCC(Nc5ncc6ccc(=O)n(C7CCCC7)c6n5)CC4)c3C2=O)C(=O)N1 (centres unmarked) [compound 1, 4-((8-cyclopentyl-7-oxo-7,8-dihydro-pyrido[2,3-d]pyrimidin-2-yl)amino)-N-(14-((2-(2,6-dioxopiperidin-3-yl)-1,3-dioxoisoindolin-4-yl)amino)-3,6,9,12-tetraoxatetradecyl)piperidine-1-sulfonamide] |
| 291 | 35 to 90 | 155 | O=C1CCC(N2Cc3cc(N4CC5(CCN(Cc6cccc(S(=O)(=O)N7CCC(Nc8ncc9ccc(=O)n(C%10CCCC%10)c9n8)CC7)c6)CC5)C4)ccc3C2=O)C(=O)N1 (centres unmarked) [Compound 58, 3-(5-(7-(3-((4-((8-cyclopentyl-7-oxo-7,8-dihydropyrido[2,3-d]pyrimidin-2-yl)amino)-piperidin-1-yl)sulfonyl)benzyl)-2,7-diazaspiro-[3.5]nonan-2-yl)-1-oxoisoindolin-2-yl)piperidine-2,6-dione] |
| 499 |  | 1420 | O=C1CCC(N2Cc3cc(N4C5CCC4CN(Cc4cccc(S(=O)(=O)N6CCC(Nc7ncc8ccc(=O)n(C9CCCC9)c8n7)CC6)c4)C5)ccc3C2=O)C(=O)N1 (centres unmarked) [Compound 52, 3-(5-(3-(3-((4-((8-cyclopentyl-7-oxo-7,8-dihydropyrido[2,3-d]pyrimidin-2-yl)amino)-piperidin-1-yl)sulfonyl)benzyl)-3,8-diazabicyclo-[3.2.1]octan-8-yl)-1-oxoisoindolin-2-yl)piperidine-2,6-dione] |
| 3040 |  | 2670 | O=C(COc1cccc2c1C(=O)N(C1CCC(=O)NC1=O)C2=O)NCCOCCN1CCN(S(=O)(=O)N2CCC(Nc3ncc4ccc(=O)n(C5CCCC5)c4n3)CC2)CC1 (centres unmarked) [compound 3, N-(2-(2-(4-((4-((8-cyclopentyl-7-oxo-7,8-dihydropyrido[2,3-d]pyrimidin-2-yl)amino)-piperidin-1-yl)sulfonyl)piperazin-1-yl)-ethoxy)ethyl)-2-((2-(2,6-dioxopiperidin-3-yl)-1,3-dioxoisoindolin-4-yl)oxy)acetamide] |
